Among the data in patent publication US9062015B2, “Inhibitors of sphingosine kinase” (Merck Patent GmbH, priority 2009, dated 2015) are IC50 values, retold here.

The target of this assay is SphK1 (Homo sapiens, UniProt Q9NYA1). The experiment in a line: SphK1 kinase assay, 384-well flashplate (biochemical assay). Conditions: IC50 ranges; 5 nM modified SphK1, 800 nM omega-biotinyl-D-erythro-sphingosine, 1 μM ATP, 30° C., 120 min; read-out: SphK1 Inhibition IC50. The method, then:
Tests for the Inhibition of the SphK1 Activity
The kinase assay is carried out as a 384-well flashplate assay.
5 nM modified SphK1, 800 nM omega-biotinyl-D-erythro-sphingosine and 1 μM ATP (with 0.3 μCi of ^33P-ATP/well) are incubated in a total volume of 50 μl (25 mM HEPES, 5 mM MgCl2, 1 mM dithiothreitol, 0.01% of Brij35, 0.1% of BSA (fatty acid-free), pH 7.4) without or with test substance (5-10 concentrations) at 30° C. for 120 min. The reaction is terminated using 25 μl of 200 mM EDTA solution, filtered off with suction at room temperature after 30 min, and the cavities are washed 3 times with 100 μl of 0.9% NaCl solution. The non-specific proportion of the kinase reaction (blank) is determined using 0.5 mM NaCl. Radioactivity is measured in topcount. IC50 values are calculated using RS1.

Sequence of SphK1 (Q9NYA1 9-364 limits assumed): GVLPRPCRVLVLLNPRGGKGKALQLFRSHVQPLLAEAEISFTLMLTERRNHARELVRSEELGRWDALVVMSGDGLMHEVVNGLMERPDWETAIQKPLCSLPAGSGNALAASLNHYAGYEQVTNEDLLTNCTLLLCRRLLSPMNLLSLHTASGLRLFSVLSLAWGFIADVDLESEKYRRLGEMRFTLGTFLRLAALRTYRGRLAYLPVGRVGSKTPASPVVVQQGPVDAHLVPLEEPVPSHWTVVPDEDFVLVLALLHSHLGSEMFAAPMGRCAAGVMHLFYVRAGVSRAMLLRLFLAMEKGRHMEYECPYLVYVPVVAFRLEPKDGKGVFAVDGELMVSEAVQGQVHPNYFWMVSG

As for `CC1(C)CCC(C)(C)c2cc(-c3cccc(N4CCN(CCCCO)CC4)c3)ccc21`, the half-inhibitory concentration (IC50) was in the range of 100 to 1000 nM.

For the compound `CC1(C)CCC(C)(C)c2cc(-c3cccc(N4CCN(CCCCCO)CC4)n3)ccc21`, the half-inhibitory concentration (IC50) was below 100 nM.

Regarding `CC1(C)CCC(C)(C)c2cc(-c3cccc(N4CCN(CCCCO)CC4)n3)ccc21`, the IC50 was below 100 nM.

On to `CC1(C)CCC(C)(C)c2cc(-c3ncnc(N4CCC(N5CCC(N)C5)CC4)n3)ccc21` (stereo not drawn) [1-{1-[4-(5,5,8,8-Tetramethyl-5,6,7,8-tetrahydronaphthalen-2-yl)-1,3,5-triazin-2-yl]piperidin-4-yl}pyrrolidin-3-ylamine], for which the IC50 lay within 100 to 1000 nM.

Regarding `CC1(C)CC(C)(C)c2cc(-c3cccc(N4CCN(CCCCCO)CC4)n3)ccc21` [5-{4-[6-(1,1,3,3-Tetramethylindan-5-yl)pyridin-2-yl]piperazin-1-yl}-pentan-1-ol], the IC50 was in the range of 100 to 1000 nM.

Take `Cc1ccc(-c2ccc3c(c2)C(C)(C)CCC3(C)C)cc1N1CCNCC1`: the concentration for half-maximal inhibition (IC50) was above 1000 nM.

`CC1(C)CCC(C)(C)c2cc(-c3cccc(N4CCN(CCCCCOC(=O)CN)CC4)c3)ccc21`: the IC50 was 100 to 1000 nM.

Take `CC1(C)CCC(C)(C)c2cc(-c3ncnc(N4CCC(NCCCCO)CC4)n3)ccc21` [4-{1-[4-(5,5,8,8-Tetramethyl-5,6,7,8-tetrahydronaphthalen-2-yl)-1,3,5-triazin-2-yl]piperidin-4-ylamino}butan-1-ol]: the IC50 was below 100 nM.

`CC1(C)CCCc2cc(-c3cccc(N4CCN(CCCCO)CC4)n3)ccc21` [4-{4-[6-(5,5-Dimethyl-5,6,7,8-tetrahydronaphthalen-2-yl)pyridin-2-yl]-piperazin-1-yl}butan-1-ol]: the IC50 was above 1000 nM.

Turning to `CC1(C)CCC(C)(C)c2cc(-c3ncnc(N4CCN(CCCCCO)CC4)n3)ccc21`, the 50% inhibitory concentration (IC50) is below 100 nM.

With `CC1(C)CCC(C)(C)c2cc(-c3cccc(N4CCC(NCCCCO)CC4)n3)ccc21` [4-[6′-(5,5,8,8-Tetramethyl-5,6,7,8-tetrahydronaphthalen-2-yl)-3,4,5,6-tetrahydro-2H-1,2′-bipyridinyl-4-ylamino]butan-1-ol], the half-inhibitory concentration (IC50) is below 100 nM.

In the case of `CC1(C)CCc2cc(-c3cccc(N4CCN(CCCCO)CC4)n3)ccc21` [4-{4-[6-(1,1-Dimethylindan-5-yl)pyridin-2-yl]piperazin-1-yl}butan-1-ol], the IC50 was above 1000 nM.

Take `CC1(C)CCC(C)(C)c2cc(-c3ccnc(N4CCN(CCCCO)CC4)c3)ccc21`: the IC50 was 100 to 1000 nM.

With `CC1(C)CCc2cc(-c3cccc(N4CCNCC4)n3)ccc21` [1-[6-(1,1-Dimethylindan-5-yl)pyridin-2-yl]piperazine], the concentration for half-maximal inhibition (IC50) was above 1000 nM.

`CC1(C)CCC(C)(C)c2cc(-c3ncnc(N4CCNCC4)n3)ccc21` [2-Piperazin-1-yl-4-(5,5,8,8-tetramethyl-5,6,7,8-tetrahydronaphthalen-2-yl)-1,3,5-triazine]: the IC50 is below 100 nM.

For the compound `CC1(C)CCC(C)(C)c2cc(-c3cccc(N4CCNCC4)n3)ccc21` [1-[6-(5,5,8,8-Tetramethyl-5,6,7,8-tetrahydronaphthalen-2-yl)pyridin-2-yl]piperazine], the half-inhibitory concentration (IC50) lay in the range of 100 to 1000 nM.

For the compound `CC1(C)CC(C)(C)c2cc(-c3cccc(N4CCNCC4)n3)ccc21` [1-[6-(1,1,3,3-Tetramethylindan-5-yl)pyridin-2-yl]piperazine], the half-maximal inhibitory concentration (IC50) was 100 to 1000 nM.

Regarding `COCCOc1ccc(-c2ccc3c(c2)C(C)(C)CCC3(C)C)nc1N1CCNCC1`, the IC50 is above 1000 nM.

In the case of `CC1(C)CCC(C)(C)c2cc(-c3cccc(N4CCC(NCCCCCO)CC4)n3)ccc21` [5-[6′-(5,5,8,8-Tetramethyl-5,6,7,8-tetrahydronaphthalen-2-yl)-3,4,5,6-tetrahydro-2H-1,2′-bipyridinyl-4-ylamino]pentan-1-ol], the IC50 was 100 to 1000 nM.

For `CC1(C)CCCc2ccc(-c3ncnc(N4CCNCC4)n3)cc21` [2-(8,8-Dimethyl-5,6,7,8-tetrahydronaphthalen-2-yl)-4-piperazin-1-yl-1,3,5-triazine], the IC50 was above 1000 nM.

Consider `CC1(C)CCC(C)(C)c2cc(-c3cccc(C4CCNCC4)n3)ccc21` [6-(5,5,8,8-Tetramethyl-5,6,7,8-tetrahydronaphthalen-2-yl)-1′,2′,3′,4′,5′,6′-hexahydro-2,4′-bipyridinyl], for which the IC50 was 100 to 1000 nM.

On to `CC1(C)CCC(C)(C)c2cc(-c3cccc(N4CCC(N5CCCC(O)C5)CC4)n3)ccc21` (stereo not drawn) [6″-(5,5,8,8-Tetramethyl-5,6,7,8-tetrahydronaphthalen-2-yl)-3,4,5,6,3′,4′,5′,6′-octahydro-2H,2′H-[1,4′;1′,2″]terpyridin-3-ol], for which the half-maximal inhibitory concentration (IC50) was in the range of 100 to 1000 nM.

Regarding `CC1(C)CCC(C)(C)c2cc(-c3cccc(N4CCN(C[C@@H](N)CO)CC4)n3)ccc21`, the half-inhibitory concentration (IC50) was above 1000 nM.

On to `CC1(C)CCc2cc(-c3cccc(N4CCN(CCCCCO)CC4)n3)ccc21` [5-{4-[6-(1,1-Dimethylindan-5-yl)pyridin-2-yl]piperazin-1-yl}pentan-1-ol], for which the 50% inhibitory concentration (IC50) is above 1000 nM.

Consider `CC1(C)CCC(C)(C)c2cc(-c3cccc(N4CCN(CCCCCO)CC4)c3)ccc21`, for which the IC50 is below 100 nM.

Consider `CC1(C)CCC(C)(C)c2cc(-c3ncnc(N4CCN(CCCCO)CC4)n3)ccc21` [4-{4-[4-(5,5,8,8-Tetramethyl-5,6,7,8-tetrahydronaphthalen-2-yl)-1,3,5-triazin-2-yl]piperazin-1-yl}butan-1-ol], for which the IC50 was below 100 nM.

With `CC1(C)CCC(C)(C)c2cc(-c3cc(N4CCNCC4)ccn3)ccc21`, the concentration for half-maximal inhibition (IC50) was in the range of 100 to 1000 nM.

Take `CC1(C)CCC(C)(C)c2cc(-c3ccnc(N4CCNCC4)n3)ccc21` [2-Piperazin-1-yl-4-(5,5,8,8-tetramethyl-5,6,7,8-tetrahydronaphthalen-2-yl)pyrimidine]: the IC50 fell in the range of 100 to 1000 nM.

As for `C[C@H]1CN(c2cccc(-c3ccc4c(c3)C(C)(C)CCC4(C)C)c2)CCN1`, the half-maximal inhibitory concentration (IC50) is 100 to 1000 nM.

Take `CC1(C)CC(C)(C)c2cc(-c3cccc(N4CCN(CCCCO)CC4)n3)ccc21` [4-{4-[6-(1,1,3,3-Tetramethylindan-5-yl)pyridin-2-yl]piperazin-1-yl}-butan-1-ol]: the IC50 was 100 to 1000 nM.
